{
  "source": "patent US20080033039A1",
  "about": "“Combination of ceramide and oxaliplatin for inducing cell death and uses thereof in treating cancer” (priority 2006, published 2008)",
  "key": {"[1]": {"tested_on": "L3.6 pancreatic tumor implants", "conditions": "for anti-tumor response in combination therapy with C6-ceramide: SCID Mice bearing L3.6 pancreatic tumor implants; for Mean Body Weight (g) (Time of Death or Sacrifice): at time of death or sacrifice", "method": "(§1) In vivo experiments utilized SCID/Beige/Taconic male mice inoculated subcutaneously (S.C.) with 2×10^6 L3.6 pancreatic cells. Chemotherapy dose levels were based on standardized clinical dosing as modified from in vitro data. […] The data recovered included maximum tumor volume, tumor weight, body weight and survival. Histopathology studies were carried out in a separate group of 40 mice treated by the same drug dose levels and autopsied at 4 hours and 24 hours. Tumors were bi-valved and fixed in buffered formalin or frozen in hexane/acetone bath. A major focus was effects on tumor necrosis, apoptosis, mitotic index and caspase 3 index.\nSCID/Beige/Taconic male mice, 22-25 g, 6-8 weeks old purchased from Taconic Laboratory (Germantown, N.Y.) were ear tagged and randomized into eight groups of 5 mice each prior to inoculation s.c. with 2×10^6 L3.6 PA cells (46) in a volume 0.1 ml into the internal surface of the right thigh. Treatment was started according to the protocol <0.5 cc> (early 4 days or late 10 days). […] Mice were treated 3 times/week for 4-6 weeks with intraperitoneal injections of chemotherapy at dose levels to be described. Body weight of mice and diameters of tumors were measured every week. Tumor volumes (cm^3) were calculated by formula: V=Higher diameter X (smaller diameter)^2/2 (47-50). At the end of the 6 week observation period surviving mice were euthanized with CO2 inhalation. All the mice were autopsied and tissues were fixed in 10% buffered formalin, embedded in paraffin, and H&E sections of primary tumor, lungs, spleen, liver were examined microscopically. We also analyzed survival rate (%), mean tumor volume (MTV), mean survival time (MST), % mice with primary tumors and final rate of tumor development per survival time (FRTD). The last test was calculated from the MTV and MST: FRTD(cm^3/d)=MTV (cm^3/MST/day).\nOur initial dose response studies were done using low dose ceramide 1 mg/kg and oxaliplatin dose levels of 11.0 mg/kg→3.5 mg/kg. […] We next studied the optimum ceramide dose level from 1 mg/kg to 10 mg/kg."}, "[2]": {"tested_on": "L36 Tumors", "test": "Short term (4/24 hrs) histopathology of L3.6 tumors: necrosis, mitotic index, apoptosis (H&E), caspase 3 staining", "format": "in vivo, mice", "method": "as §1"}, "[3]": {"conditions": "IP 3x/wk from day 4, paclitaxel 3.0, oxaliplatin 2.5, cisplatin 0.5 mg/kg, ceramide 10 mg/kg, volumes calculated in cm^3"}, "[4]": {"conditions": "Oxaliplatin at 2.5 mg/kg with low dose ceramide 1 mg/kg"}, "[5]": {"conditions": "same dosing, 6 week observation"}},
  "note": "Read-outs that look alike come from different tables or passages of the source.",
  "data": [
    {"compound": "O=C1[O][Pt]2([NH][C@@H]3CCCC[C@H]3[NH]2)[O]C1=O", "note": "[Oxaliplatin]", "values": [
      {"measurement": "% Survival @ 3 Weeks", "setting": "[1]", "result": 100, "unit": "%"},
      {"measurement": "% Surviving at 3 wks", "setting": "[1]; table T3", "result": 100, "unit": "%"},
      {"measurement": "% Survival @ 6 Weeks", "setting": "[1]", "result": 0, "unit": "%"},
      {"measurement": "% Surviving at 6 wks", "setting": "[1]; table T3", "result": 0, "unit": "%"},
      {"measurement": "Mean Final Tumor Volume", "setting": "[1]; [3]", "result": "1.76 +/− 0.2"},
      {"measurement": "activity in initial dose response studies", "setting": "[1]; [4]", "result": "most active"},
      {"measurement": "toxicity in initial dose response studies", "setting": "[1]; [4]", "result": "less toxic than other dose levels"},
      {"measurement": "anti-tumor response in combination therapy with C6-ceramide", "setting": "[1]", "result": "significantly enhanced"},
      {"measurement": "Mean Body Weight (g) (Time of Death or Sacrifice)", "setting": "[1]", "result": 15.6, "unit": "g"},
      {"measurement": "Mean Survival Time", "setting": "[1]; [5]", "result": "27.4 ± 2.2", "unit": "days"},
      {"measurement": "Mean Final Tumor Volume", "setting": "[1]; table T3", "result": "1.76 +/− 0.2"},
      {"measurement": "Mean Survival Time", "setting": "[1]; table T3", "result": "27.4 +/− 2.2"},
      {"measurement": "% of Necroses", "setting": "[2]; 4 hr after treatment", "result": 30, "unit": "%"},
      {"measurement": "Apoptosis Index", "setting": "[2]; 4 hrs", "result": 1.35},
      {"measurement": "Apoptosis N/4000 Cells", "setting": "[2]; 4 hrs", "result": 54, "unit": "N/4000 Cells"},
      {"measurement": "Caspase 3 Index", "setting": "[2]; 4 hrs", "result": 3.5},
      {"measurement": "Caspase N/4000 Cells", "setting": "[2]; 4 hrs", "result": 148, "unit": "N/4000 Cells"},
      {"measurement": "Difference in Caspase Expression Vs. Control", "setting": "[2]; 4 hrs", "result": 132, "unit": "%"},
      {"measurement": "Mitotic Index", "setting": "[2]; 4 hrs", "result": 0.92, "unit": "%"},
      {"measurement": "% of Necroses", "setting": "[2]; 24 hr after treatment", "result": 10, "unit": "%"},
      {"measurement": "Apoptosis Index", "setting": "[2]; 24 hrs", "result": 1.28},
      {"measurement": "Apoptosis N/4000 Cells", "setting": "[2]; 24 hrs", "result": 51, "unit": "N/4000 Cells"},
      {"measurement": "Caspase 3 Index", "setting": "[2]; 24 hrs", "result": "3/1"},
      {"measurement": "Caspase N/4000 Cells", "setting": "[2]; 24 hrs", "result": 123, "unit": "N/4000 Cells"},
      {"measurement": "Difference in Caspase Expression Vs. Control", "setting": "[2]; 24 hrs", "result": 121, "unit": "%"},
      {"measurement": "Mitotic Index", "setting": "[2]; 24 hrs", "result": "0/57"}
    ]},
    {"compound": "CC(=O)O[C@H]1C(=O)[C@@]2(C)[C@H]([C@H](OC(=O)c3ccccc3)[C@]3(O)C[C@H](OC(=O)[C@H](O)[C@@H](NC(=O)c4ccccc4)c4ccccc4)C(C)=C1C3(C)C)[C@]1(OC(C)=O)CO[C@@H]1C[C@@H]2O", "note": "[Taxol, Paclitaxel]", "values": [
      {"measurement": "% Survival @ 3 Weeks", "setting": "[1]", "result": 60, "unit": "%"},
      {"measurement": "% Surviving at 3 wks", "setting": "[1]; table T3", "result": 60, "unit": "%"},
      {"measurement": "% Survival @ 6 Weeks", "setting": "[1]", "result": 0, "unit": "%"},
      {"measurement": "% Surviving at 6 wks", "setting": "[1]; table T3", "result": 0, "unit": "%"},
      {"measurement": "Mean Final Tumor Volume", "setting": "[1]; [3]", "result": "1.83 +/− 0.4"},
      {"measurement": "anti-tumor response in combination therapy with C6-ceramide", "setting": "[1]", "result": "significantly enhanced"},
      {"measurement": "Mean Body Weight (g) (Time of Death or Sacrifice)", "setting": "[1]", "result": 17.4, "unit": "g"},
      {"measurement": "Mean Survival Time", "setting": "[1]; [5]", "result": "23.0 ± 2.4", "unit": "days"},
      {"measurement": "Mean Final Tumor Volume", "setting": "[1]; table T3", "result": "1.83 +/− 0.4"},
      {"measurement": "Mean Survival Time", "setting": "[1]; table T3", "result": "23.0 +/− 2.4"},
      {"measurement": "% of Necroses", "setting": "[2]; 4 hr after treatment", "result": "50/NA %"},
      {"measurement": "Apoptosis N/4000 Cells", "setting": "[2]; 4 hrs", "result": 66, "unit": "N/4000 Cells"},
      {"measurement": "Difference in Caspase Expression Vs. Control", "setting": "[2]; 4 hrs", "result": 95, "unit": "%/ ^"},
      {"measurement": "Apoptosis N/4000 Cells", "setting": "[2]; 24 hrs", "result": 110, "unit": "N/4000 Cells"}
    ]},
    {"compound": "CCCCCCCCCCCCC/C=C/[C@@H](O)[C@H](CO)NC(=O)CCCCC", "note": "[Ceramide, N-hexanoyl-D-sphingosine]", "values": [
      {"measurement": "% Survival @ 3 Weeks", "setting": "[1]", "result": 40, "unit": "%"},
      {"measurement": "% Surviving at 3 wks", "setting": "[1]; table T3", "result": 40, "unit": "%"},
      {"measurement": "% Survival @ 6 Weeks", "setting": "[1]", "result": 0, "unit": "%"},
      {"measurement": "% Surviving at 6 wks", "setting": "[1]; table T3", "result": 0, "unit": "%"},
      {"measurement": "synergy regarding anti-tumor effect", "setting": "[1]; Ceramide 10 mg/kg with oxaliplatin 2.5 mg/kg", "result": "optimum synergy"},
      {"measurement": "enhancement of oxaliplatin by ceramide", "setting": "[1]; Ceramide at 1 mg/kg with oxaliplatin 2.5 mg/kg", "result": "only modest effects"},
      {"measurement": "Mean Final Tumor Volume", "setting": "[1]; [3]", "result": "1.69 +/− 0.3"},
      {"measurement": "Mean Body Weight (g) (Time of Death or Sacrifice)", "setting": "[1]", "result": 17.0, "unit": "g"},
      {"measurement": "animal weight under combination therapy", "setting": "[1]; mouse, in vivo", "result": "preservation of animal weight"},
      {"measurement": "Mean Survival Time", "setting": "[1]; [5]", "result": "20.8 ± 1.1", "unit": "days"},
      {"measurement": "Mean Final Tumor Volume", "setting": "[1]; table T3", "result": "1.69 +/− .03"},
      {"measurement": "Mean Survival Time", "setting": "[1]; table T3", "result": "20.8 +/− 1.1"},
      {"measurement": "% of Necroses", "setting": "[2]; 4 hr after treatment", "result": "30/NA %"},
      {"measurement": "Apoptosis Index", "setting": "[2]; 4 hrs", "result": 1.6},
      {"measurement": "Apoptosis N/4000 Cells", "setting": "[2]; 4 hrs", "result": 64, "unit": "N/4000 Cells"},
      {"measurement": "Caspase 3 Index", "setting": "[2]; 4 hrs", "result": 4.12},
      {"measurement": "Caspase N/4000 Cells", "setting": "[2]; 4 hrs", "result": 165, "unit": "N/4000 Cells"},
      {"measurement": "Difference in Caspase Expression Vs. Control", "setting": "[2]; 4 hrs", "result": 155, "unit": "%"},
      {"measurement": "Mitotic Index", "setting": "[2]; 4 hrs", "result": 0.6, "unit": "%"},
      {"measurement": "Apoptosis Index", "setting": "[2]; 24 hrs", "result": "1/2"},
      {"measurement": "Apoptosis N/4000 Cells", "setting": "[2]; 24 hrs", "result": 46, "unit": "N/4000 Cells"},
      {"measurement": "Caspase 3 Index", "setting": "[2]; 24 hrs", "result": 4.25},
      {"measurement": "Caspase N/4000 Cells", "setting": "[2]; 24 hrs", "result": 157, "unit": "N/4000 Cells"},
      {"measurement": "Difference in Caspase Expression Vs. Control", "setting": "[2]; 24 hrs", "result": 148, "unit": "%"},
      {"measurement": "Mitotic Index", "setting": "[2]; 24 hrs", "result": "0/32"}
    ]},
    {"compound": "N.N.[Cl][Pt][Cl]", "note": "[Cisplatin]", "values": [
      {"measurement": "% Survival @ 3 Weeks", "setting": "[1]", "result": 60, "unit": "%"},
      {"measurement": "% Surviving at 3 wks", "setting": "[1]; table T3", "result": 60, "unit": "%"},
      {"measurement": "% Survival @ 6 Weeks", "setting": "[1]", "result": 0, "unit": "%"},
      {"measurement": "% Surviving at 6 wks", "setting": "[1]; table T3", "result": 0, "unit": "%"},
      {"measurement": "Mean Final Tumor Volume", "setting": "[1]; [3]", "result": "1.83 +/− 0.1"},
      {"measurement": "anti-tumor response in combination therapy with C6-ceramide", "setting": "[1]", "result": "significantly enhanced"},
      {"measurement": "Mean Body Weight (g) (Time of Death or Sacrifice)", "setting": "[1]", "result": 16.6, "unit": "g"},
      {"measurement": "Mean Survival Time", "setting": "[1]; [5]", "result": "25.6 ± 3.2", "unit": "days"},
      {"measurement": "Mean Final Tumor Volume", "setting": "[1]; table T3", "result": "1.83 +/− 0.1"},
      {"measurement": "Mean Survival Time", "setting": "[1]; table T3", "result": "25.6 +/− 3.2"}
    ]}
  ]
}
